This is an account of results in US20220227785A1, “NOVEL PHENYL AND PYRIDYL UREAS ACTIVE AGAINST THE HEPATITIS B VIRUS (HBV)” (AICURIS GMBH & CO. KG, priority 2019, published 2022).

The subject of this experiment is HBV in HepAD38 cells. The following applies: Hepatitis B virus, HePAD38, 144 h, read-out: Cell activity.
On to `CN(C(=O)c1[nH]nc2c1CN(C(=O)Nc1ccc(F)c(Cl)c1)CC2)C1(c2ccc(C(=O)O)cc2)CC1` [Example 13, 4-(1-{N-methyl-5-[(3-chloro-4-fluorophenyl)carbamoyl]-2H,4H,5H,6H,7H-pyrazolo[4,3-c]pyridine-3-amido}cyclopropyl)benzoic acid], for which the EC50 was under 100000 nM.

`CN(C(=O)c1[nH]nc2c1CN(C(=O)Nc1ccc(F)c(Cl)c1)CC2)C1(c2ncc(C(=O)O)cn2)CC1` [Example 12, 2-(1-{N-methyl-5-[(3-chloro-4-fluorophenyl)carbamoyl]-2H,4H,5H,6H,7H-pyrazolo[4,3-c]pyridine-3-amido}cyclopropyl)pyrimidine-5-carboxylic acid]: the EC50 lay in the range of 1000 to 10000 nM.

Consider `CN(C(=O)c1cnn2c1CN(C(=O)Nc1ccc(F)c(Cl)c1)CC2)C1(c2nccc(C(=O)O)n2)CC1` [Example 15, 2-(1-{N-methyl-5-[(3-chloro-4-fluorophenyl)carbamoyl]-4H,5H,6H,7H-pyrazolo[1,5-a]pyrazine-3-amido}cyclopropyl)pyrimidine-4-carboxylic acid], for which the EC50 lay within 1000 to 10000 nM.

With `O=C(O)c1ccc(C2(NC(=O)c3cnn4c3CN(C(=O)Nc3ccc(F)c(Cl)c3)CC4)CC2)cc1` [Example 17, 4-(1-{5-[(3-chloro-4-fluorophenyl)carbamoyl]-4H,5H,6H,7H-pyrazolo[1,5-a]pyrazine-3-amido}cyclopropyl)benzoic acid], the EC50 was under 100000 nM.

As for `CC1Cn2ncc(C(=O)N(C)C3(c4ccc(C(=O)O)cc4)CC3)c2CN1C(=O)Nc1ccc(F)c(Cl)c1` (centres unmarked) [Example 9, 4-(1-{N-methyl-5-[(3-chloro-4-fluorophenyl)carbamoyl]-6-methyl-4H,5H,6H,7H-pyrazolo[1,5-a]pyrazine-3-amido}cyclopropyl)benzoic acid], the EC50 is under 1000 nM.

Consider `C[C@@H](NC(=O)c1noc2c1CN(C(=O)Nc1ccc(F)c(Cl)c1)CC2)C(F)(F)F` [Example 8, N5-(3-chloro-4-fluorophenyl)-N3-[(2R)-1,1,1-trifluoropropan-2-yl]-4H,5H,6H,7H-[1,2]oxazolo[4,5-c]pyridine-3,5-dicarboxamide], for which the EC50 was under 1000 nM.

Consider `O=C(O)c1cccc(C2(NC(=O)c3cnn4c3CN(C(=O)Nc3ccc(F)c(Cl)c3)CC4)CC2)c1` [Example 18, 3-(1-{5-[(3-chloro-4-fluorophenyl)carbamoyl]-4H,5H,6H,7H-pyrazolo[1,5-a]pyrazine-3-amido}cyclopropyl)benzoic acid], for which the EC50 is 1000 to 10000 nM.

Take `CC1Cn2cnc(C(=O)N(C)C3(c4cccc(C(=O)O)c4)CC3)c2CN1C(=O)Nc1ccc(F)c(Cl)c1` (centres unmarked) [Example 14, 3-(1-{N-methyl7-[(3-chloro-4-fluorophenyl)carbamoyl]-6-methyl-5H,6H,7H,8H-imidazo[1,5-a]pyrazine-1-amido}cyclopropyl)benzoic acid]: the EC50 was under 1000 nM.

Regarding `CN(C(=O)c1cnn2c1CN(C(=O)Nc1ccc(F)c(Cl)c1)CC2)C1(c2cccc(C(=O)O)c2)CC1` [Example 1, 3-(1-{N-methyl-5-[(3-chloro-4-fluorophenyl)carbamoyl]-4H,5H,6H,7H-pyrazolo[1,5-a]pyrazine-3-amido}cyclopropyl)benzoic acid], the EC50 is under 1000 nM.

For the molecule `CN(C(=O)c1cnn2c1CN(C(=O)Nc1ccc(F)c(Cl)c1)CC2)C1(c2ccc(C(=O)O)cc2)CC1` [Example 2, 4-(1-{N-methyl-5-[(3-chloro-4-fluorophenyl)carbamoyl]-4H,5H,6H,7H-pyrazolo[1,5-a]pyrazine-3-amido}cyclopropyl)benzoic acid], the EC50 is under 1000 nM.

Turning to `CN1C(=O)c2c3c(nn2CC12CC2)CCN(C(=O)Nc1ccc(F)c(Cl)c1)C3` [Example 4, N-(3-chloro-4-fluorophenyl)-4′-methyl-3′-oxo-4′,7′,8′,12′-tetraazaspiro[cyclopropane-1,5′-tricyclo[7.4.0.0^2,7]tridecane]-1′,8′-diene-12′-carboxamide], the EC50 is under 1000 nM.

Regarding `COCC1(N(C)C(=O)c2noc3c2CN(C(=O)Nc2ccc(F)c(Cl)c2)CC3)CC1` [Example 3, N5-(3-chloro-4-fluorophenyl)-N3-[1-(methoxymethyl)cyclopropyl]-N3-methyl-4H,5H,6H,7H-[1,2]oxazolo[4,5-c]pyridine-3,5-dicarboxamide], the EC50 is under 1000 nM.

Take `O=C(O)c1ccc(C2(NC(=O)c3cnn4c3CN(C(=O)Nc3ccc(F)c(Cl)c3)CC4)CC2)nc1` [Example 6, 6-(1-{5-[(3-chloro-4-fluorophenyl)carbamoyl]-4H,5H,6H,7H-pyrazolo[1,5-a]pyrazine-3-amido}cyclopropyl)pyridine-3-carboxylic acid]: the EC50 is under 1000 nM.

Turning to `CN(C(=O)c1cnn2c1CN(C(=O)Nc1ccc(F)c(Cl)c1)CC2)C1(c2cc(C(=O)O)on2)CC1` [Example 27, 3-(1-{N-methyl-5-[(3-chloro-4-fluorophenyl)carbamoyl]-4H,5H,6H,7H-pyrazolo[1,5-a]pyrazine-3-amido}cyclopropyl)-1,2-oxazole-5-carboxylic acid #], the EC50 was under 1000 nM.

With `CCN1C(=O)c2c3c(nn2CCC12CC2)CCN(C(=O)Nc1ccc(F)c(Cl)c1)C3` [Example 28, N-(3-chloro-4-fluorophenyl)-13′-ethyl-14′-oxo-4′,8′,9′,13′-tetraazaspiro[cyclopropane-1,12′-tricyclo[7.5.0.0^2,^7]tetradecane]-1′,7′-diene-4′-carboxamide], the EC50 is under 1000 nM.

On to `CN1C(=O)c2c3c(nn2CCC12CC2)CCN(C(=O)Nc1ccc(F)c(Cl)c1)C3` [Example 11, N-(3-chloro-4-fluorophenyl)-13′-methyl-14′-oxo-4′,8′,9′,13′-tetraazaspiro[cyclopropane-1,12′-tricyclo[7.5.0.0^2,^7]tetradecane]-1′,7′-diene-4′-carboxamide], for which the EC50 is under 1000 nM.

Consider `CN1C(=O)c2c3c(nn2CC12CC2)CCN(C(=O)Nc1ccc(F)c(F)c1)C3` [Example 10, N-(3,4-difluorophenyl)-4′-methyl-3′-oxo-4′,7′,8′,12′-tetraazaspiro[cyclopropane-1,5′-tricyclo[7.4.0.0^2,^7]tridecane]-1′,8′-diene-12′-carboxamide], for which the EC50 is under 1000 nM.

Take `CN(C(=O)c1cnn2c1CN(C(=O)Nc1ccc(F)c(Cl)c1)CC2)C1(c2ccccc2C(=O)O)CC1` [Example 29, 2-(1-{N-methyl-5-[(3-chloro-4-fluorophenyl)carbamoyl]-4H,5H,6H,7H-pyrazolo[1,5-a]pyrazine-3-amido}cyclopropyl)benzoic acid]: the EC50 was under 1000 nM.

Regarding `O=C(O)c1cnc(C2(NC(=O)c3cnn4c3CN(C(=O)Nc3ccc(F)c(Cl)c3)CC4)CC2)nc1` [Example 5, 2-(1-{5-[(3-chloro-4-fluorophenyl)carbamoyl]-4H,5H,6H,7H-pyrazolo[1,5-a]pyrazine-3-amido}cyclopropyl)pyrimidine-5-carboxylic acid], the EC50 was under 1000 nM.

With `CN(C(=O)c1cnn2c1CN(C(=O)Nc1ccc(F)c(Cl)c1)CC2)C1(Cc2ccc(C(=O)O)cc2)CC1` [Example 16, 4-[(1-{N-methyl-5-[(3-chloro-4-fluorophenyl)carbamoyl]-4H,5H,6H,7H-pyrazolo[1,5-a]pyrazine-3-amido}cyclopropyl)methyl]benzoic acid], the EC50 is under 1000 nM.
